# Test results: US20080213910A1, “METHOD FOR BLOCKING NON-SPECIFIC PROTEIN BINDING ON A FUNCTIONALIZED SURFACE” (priority 2006, published 2008)
# Experiments:
# SA surface [1] = target: T1, SA surface (Streptomyces avidinii, UniProt P22629); assay: Biotin binding to SA surface in FBS, with and without trehalose blocking; settings: for shift from biotin binding to SA surface: SA shift 5.8 nm
# Procedure: In order to test the affect of trehalose on specific protein-protein interactions, the ability of trehalose to interfere with the ability of biotin to bind to a SA surface was measured. Biotin in either 10% or 100% FBS was allowed to react with the SA surface with the 5.8 nm PWV shift, and the resulting shift measured (see Table 8). The theoretical shift resulting from Biotin binding, shown in parenthesis, was calculated from the following formula: (Mol. Wt. of Biotin/Mol. Wt. of SA)×# of binding sites on SA for biotin×SA shift, or (244/55000)×4 (binding sites)×5.8 nm (SA shift).
# Carbonic Anhydrase (CA) = assay: CBS binding to carbonic anhydrase after blocking with 5% trehalose (PWV shift); settings: 5% trehalose block
# Procedure: FIG. 5 represents the normalized peak wavelength value (PWV) resulting from CBS binding to carbonic anhydrase after blocking with 5% trehalose.
# The CA surface was blocked with 5% trehalose. Trehalose blocking of non-specific interactions of CBS to the surface enabled detection of specific binding to CA below 1 μM.
# [2] = Sugars binding to amine surfaces (PWV change); settings: for PWV change after over night incubation and wash: stored overnight in water
# Procedure: Lactose and glyceraldehyde solutions in water at 5% and 2.5% respectively were added to a BIND™ sensor plate functionalized with amine functional groups for 2 hrs. The plate was then washed thoroughly with water and stored overnight in water. The plates were then washed again with water and the binding of sugars was measured.
# [3] = Blocking of streptavidin (SA) surface with 5% trehalose (blocker PWV shift); type: binding; settings: 2 hrs
# Procedure: (§1) 40 μl of 5% Trehalose solution was added to SA immobilized wells (0.05 mg/ml SA and 0.2 mg/ml SA) and control wells (Trehalose alone) and were allowed to bind for 2 hrs. The plates were washed and the peak wavelength value (PWV) shift was measured (See Table 6 and FIG. 2). The SA shift was the PWV of SA binding to the aldehyde surface, while the blocker shift was the PWV shift obtained after the blocker was allowed to bind to the unreacted aldehyde functional groups on the SA-immobilized aldehyde surface. The unreacted aldehydes are more easily accessed by the small blocker molecule than the bigger SA molecules. The blocker shift is lower with higher SA concentration likely because there are less aldehydes available for binding the blocker in these wells.
# SA surface [4] = target: T1, SA surface; assay: Trehalose efficacy to reduce non-specific FBS binding to the SA surface; settings: for FBS 10% binding to SA surface (shift normalized to trehalose shift) / FBS 100% binding to SA surface (shift normalized to trehalose shift): blocked with 5% Trehalose
# Procedure: In order to test the efficacy of trehalose to reduce non-specific binding, the ability of trehalose to reduce Fetal Bovine Serum (FBS) binding to the SA surface was measured. 10% and 100% commercially available FBS was allowed to react with either the SA surface with the 2 nm PWV shift or the 5.8 nm PWV shift, and the resulting shift measured (see Table 7 and FIG. 3). The shifts were normalized to the trehalose shift by considering the resulting signal after the surface has been blocked to be zero, or baseline. The change in binding due to the protein present in FBS is then measured and reported as non-specific binding.
# [5] = SA binding to the aldehyde surface (PWV shift)
# Procedure: as §1
# T1 sequence (P22629 25-183): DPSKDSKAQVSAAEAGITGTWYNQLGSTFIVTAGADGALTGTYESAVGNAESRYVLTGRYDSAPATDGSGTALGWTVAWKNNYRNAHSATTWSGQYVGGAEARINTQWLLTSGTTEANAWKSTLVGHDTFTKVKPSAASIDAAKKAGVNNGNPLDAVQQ
compound,measurement,setting,value
O=C(O)CCCC[C@@H]1SC[C@@H]2NC(=O)N[C@@H]21 [Biotin],theoretical shift resulting from Biotin binding (in parenthesis),SA surface [1]; (244/55000) x 4 binding sites x 5.8 nm SA shift,0.104 nm
same,shift from biotin binding to SA surface,"SA surface [1]; biotin in FBS 10%, 5% Trehalose",0.09 nm
same,shift from biotin binding to SA surface,"SA surface [1]; biotin in FBS 10%, No Trehalose",0.08 nm
same,shift from biotin binding to SA surface,"SA surface [1]; biotin in FBS 100%, 5% Trehalose",0.1 nm
same,shift from biotin binding to SA surface,"SA surface [1]; biotin in FBS 100%, No Trehalose",0.12 nm
"NS(=O)(=O)C(=O)O [CBS, Carboxysulfonamide]",PWV shift of CBS binding to CA,Carbonic Anhydrase (CA); CBS 0.05 μM,0.000 nm
same,PWV shift of CBS binding to CA,Carbonic Anhydrase (CA); CBS 0.10 μM,0.001 nm
same,PWV shift of CBS binding to CA,Carbonic Anhydrase (CA); CBS 0.20 μM,0.003 nm
same,PWV shift of CBS binding to CA,Carbonic Anhydrase (CA); CBS 0.39 μM,0.005 nm
same,PWV shift of CBS binding to CA,Carbonic Anhydrase (CA); CBS 0.78 μM,0.010 nm
same,PWV shift of CBS binding to CA,Carbonic Anhydrase (CA); CBS 1.56 μM,0.020 nm
same,PWV shift of CBS binding to CA,Carbonic Anhydrase (CA); CBS 3.13 μM,0.037 nm
same,PWV shift of CBS binding to CA,Carbonic Anhydrase (CA); CBS 6.25 μM,0.045 nm
same,PWV shift of CBS binding to CA,Carbonic Anhydrase (CA); CBS 12.50 μM,0.054 nm
same,PWV shift of CBS binding to CA,Carbonic Anhydrase (CA); CBS 25.00 μM,0.054 nm
same,PWV shift of CBS binding to CA,Carbonic Anhydrase (CA); CBS 50.00 μM,0.062 nm
"O=CC(O)CO (stereo not shown) [Glyceraldehydes, glyceraldehyde]",PWV change after 2 hr incubation and wash,[2]; 2.5% solution in water,1.75 nm
same,PWV change after over night incubation and wash,[2]; 2.5% solution in water,1.72 nm
OC[C@H]1O[C@@H](O[C@H]2[C@H](O)[C@@H](O)C(O)O[C@@H]2CO)[C@H](O)[C@@H](O)[C@H]1O (stereo partly shown) [Lactose],PWV change after 2 hr incubation and wash,[2]; 5% solution in water,4.86 nm
same,PWV change after over night incubation and wash,[2]; 5% solution in water,4.82 nm
OC[C@H]1O[C@H](O[C@H]2O[C@H](CO)[C@@H](O)[C@H](O)[C@H]2O)[C@H](O)[C@@H](O)[C@@H]1O [Trehalose],Blocker shift 5% Trehalose,[3]; aldehyde surface (no streptavidin),2.91 nm
same,Blocker shift 5% Trehalose,[3]; wells immobilized with 0.05 mg/mL SA,2.96 nm
same,Blocker shift 5% Trehalose,[3]; wells immobilized with 0.2 mg/mL SA,2.19 nm
same,effect on non-specific binding of proteins from FBS to the SA surface,SA surface [4],reduced the non-specific binding of proteins from FBS to the SA surface
same,FBS 10% binding to SA surface (shift normalized to trehalose shift),SA surface [4]; SA shift 2 nm surface,2.41 nm
same,FBS 100% binding to SA surface (shift normalized to trehalose shift),SA surface [4]; SA shift 2 nm surface,1.27 nm
same,FBS 10% binding to SA surface (shift normalized to trehalose shift),SA surface [4]; SA shift 5.8 nm surface,0.62 nm
same,FBS 100% binding to SA surface (shift normalized to trehalose shift),SA surface [4]; SA shift 5.8 nm surface,0.07 nm
same,interference with biotin binding to SA,SA surface [1],does not seem to interfere with biotin binding
streptavidin [SA],SA shift,[5]; 0.05 mg/mL SA during immobilization,2.00 Nm
same,SA shift,[5]; 0.2 mg/mL SA during immobilization,5.81 Nm
